The record followed here is article PMC6689975, “Novel Cell Wall Antifungals Reveal a Special Synergistic Activity in pbr1 Mutants Resistant to the Glucan Synthesis Antifungals Papulacandins and Echinocandins” (Frontiers in Microbiology, 2019).

Common to all, as to assay: microbe, parasite or virus in culture
The subject of experiment [1] is C. albicans wild-type. Also noted: species or system whole yeast cells; micro-culture broth dilution MIC in YES at 30 C, turbidity, complete growth inhibition. To be noted: Candida albicans, read-out: MIC. The protocol:
(§1) Standard YEPD (Yeast Extract, Peptone, Dextrose) ([Sherman, 1990]), YEPD+S (YEPD with 1.2M sorbitol), YES (Yeast Extract, Dextrose and Supplements of Adenine, Histidine, Leucine, Uracil and Lysine) ([Alfa et al., 1993]) and YES+S (YES with 1.2 M sorbitol) ([Ribas et al., 1991]; [Ishiguro et al., 1997]), media were used for determination of MIC values of the tested compounds. A stock solution of 10 mg/ml of each tested compounds was prepared in DMSO and serial dilutions in DMSO were prepared. The final concentration of DMSO was 2% in the YEPD medium. […] The serial dilutions of compounds were dispensed into test tubes with 1 ml of YEPD or YEPD+S to make final concentrations of 200, 100, 50, 25, 12.5, 6.26, 3.125, 1.6, 0.8 and 0.4 μg/ml. The tested yeast strains were previously grown in YEPD, YEPD+S, YES or YES+S agar plates at 30°C for 48 h. Micro-culture assays of large numbers of samples were analyzed as described) ([Martins et al., 2011]). Essentially early log-phase cells were grown in YEPD, YEPD+S, YES or YES+S (1.2 M sorbitol) medium at 30°C, and diluted to cell density of 4 X 10^6 cells/ml in YEPD, YEPD+S, YES or YES+S medium and aliquots of 100 μl were dispensed into each small test tube (3 ml test tube size). Then, another 100 μl of YEPD, YEPD+S, YES or YES+S with the corresponding dilution of each compound at 2X concentration (4% DMSO) was added. The final volume was 200 μl, with the cells diluted to of 2 X 10^6 cells/ml and each compound diluted to 1X final concentration, containing increasing concentrations of antifungal (0, 1, 2, 5, 10, 20, 50, 100 and 200 μg/ml) or an equivalent volume of solvent (2% DMSO). The cells were grown at 30°C in an orbital roller and turbidity was analyzed after 24 and 48 h of incubation. The MIC was determined as the minimal concentration of tested compound that produced complete cell growth inhibition and kept the medium clear. The MIC values were calculated from at least three independent experiments. Next, the first generation of isochromanones (1E-16E) was also screened in YES medium (Table 5) and exerted a weaker antifungal potency than in YEPD medium and also than the second family of isochromanones in YES medium (17E-30E) (Table 6). The strains are partly different from the previously mentioned ones (Tables 5, 6) analyzing two wild type C. albicans strains because they behaved similarly in YEPD. It is remarkable that there was no effect against either the C. albicans, the S. cerevisiae, or the S. pombe wild-type strains, except with 30E.

The test system of experiment [2] is C. albicans wild-type. Further details: species or system whole yeast cells; micro-culture broth dilution MIC in YES at 30 C, turbidity, complete growth inhibition. The settings on record: Candida albicans, read-out: MIC. The protocol: as §1
The source holds these as a separate data set.

Experiment [3] relates to T1, S. cerevisiae wild-type CVX12-3A.
T1 construct: CVX12-3A
Also noted: species or system whole yeast cells; micro-culture broth dilution MIC in YES at 30 C, turbidity, complete growth inhibition. The settings on record: Saccharomyces cerevisiae, read-out: MIC. The protocol:
as §1

Experiment [4] has as its system T2, S. pombe wild-type 972 h-.
T2 construct: 972 h-
Further details: species or system whole yeast cells; micro-culture broth dilution MIC in YES at 30 C, turbidity, complete growth inhibition. To be noted: Schizosaccharomyces pombe, read-out: MIC. The protocol: as §1

Experiment [5] has as its system C. albicans wild-type. Also noted: species or system whole yeast cells; macro tube broth dilution MIC in YEPD at 30 C, visual clearness of medium. The settings on record: Candida albicans, 48 h, read-out: MIC. The protocol:
(§2) Standard YEPD (Yeast Extract, Peptone, Dextrose) ([Sherman, 1990]), YEPD+S (YEPD with 1.2M sorbitol), YES (Yeast Extract, Dextrose and Supplements of Adenine, Histidine, Leucine, Uracil and Lysine) ([Alfa et al., 1993]) and YES+S (YES with 1.2 M sorbitol) ([Ribas et al., 1991]; [Ishiguro et al., 1997]), media were used for determination of MIC values of the tested compounds. A stock solution of 10 mg/ml of each tested compounds was prepared in DMSO and serial dilutions in DMSO were prepared. The final concentration of DMSO was 2% in the YEPD medium. […] The serial dilutions of compounds were dispensed into test tubes with 1 ml of YEPD or YEPD+S to make final concentrations of 200, 100, 50, 25, 12.5, 6.26, 3.125, 1.6, 0.8 and 0.4 μg/ml. The tested yeast strains were previously grown in YEPD, YEPD+S, YES or YES+S agar plates at 30°C for 48 h. For inoculation of YEPD or YEPD+S macro test tubes a suspension of tested fungus was produced with 10^5 cfu/ml (cfu - colony forming unit). 10 μl of suspension was used for inoculation of each tube. After 48 h incubation at 30°C the tubes were checked. The MIC value is the lowest concentration of the tested compound that could inhibit the fungal growth and the medium remained clear. From each tube 10 μl culture was plated on YEPD agar medium to check the contamination. The MIC tests were carried out in three parallels. The screening of the first generation of isochromanones was carried out in YEPD and YEPD+S media (1E-16E). The fungal strains analyzed are: C. albicans wild-type ATCC 26555, SC5314 and ATCC 90028, S. cerevisiae wild-type CVX12-3A and pbr1-1 mutant, and S. pombe wild-type (972h^–), pbr1-8 mutant and pbr1-6 mutant. The bold numbers in Tables 4–6 indicate the more efficient compounds. […] The weak or moderate efficacy against the C. albicans wild-type strains was observed by some substances (3E, 4Z, 5Z, 10E, 15, and 16E). The efficiency toward the S. pombe pbr1-6 mutant strain was the highest inhibitory activity, except 7E, 11E, 12 and 14E. […] As regards the other S. pombe pbr1-8 mutant strain, the antifungal activity of the tested compounds was slightly lower, but the substances with the best activity are partly identical to the best compounds mentioned with pbr1-6, (i.e., 1E, 3E, 4Z, 5Z).

The subject of experiment [6] is T1, S. cerevisiae wild-type CVX12-3A. Also noted: species or system whole yeast cells; macro tube broth dilution MIC in YEPD at 30 C, visual clearness of medium. To be noted: Saccharomyces cerevisiae, 48 h, read-out: MIC. The protocol: as §2
Experiment [7] deals with T2, S. pombe wild-type 972 h-. Further details: species or system whole yeast cells; macro tube broth dilution MIC in YEPD at 30 C, visual clearness of medium. To be noted: Schizosaccharomyces pombe, 48 h, read-out: MIC. The protocol:
as §2

The subject of experiment [8] is C. albicans wild-type. Further details: species or system whole yeast cells; macro tube broth dilution MIC in YEPD at 30 C, visual clearness of medium. To be noted: Candida albicans, 48 h, read-out: MIC. The protocol:
as §2
This is another data set of the same source.

Experiment [9] deals with C. albicans wild-type. Further details: species or system whole yeast cells; macro tube broth dilution MIC in YEPD at 30 C, visual clearness of medium. To be noted: Candida albicans, 48 h, read-out: MIC. The protocol: as §2
The source holds these as a separate data set.

≈ marks a conversion by molar mass, not a printed value. Read-outs that look alike come from different tables or passages of the source.

As for `O=C1OCc2ccccc2/C1=C/c1cccc([N+](=O)[O-])c1` [24Z], the MIC (in the experiment with C. albicans wild-type [1]; in the experiment with C. albicans wild-type [2]; in experiment [3]; in experiment [4]) was > 200 µg/mL in each case.
Consider `O=C1OCc2ccccc2/C1=C\c1cccc(Cl)c1` [28E, E-4-[(3′-Chlorophenyl)Methylene]-3-Isochromanone], for which the MIC (in the experiment with C. albicans wild-type [1]; with C. albicans wild-type [2]; in [3]; in [4]) was > 200 µg/mL each time.
As for `COc1cccc(/C=C2/C(=O)OCc3ccccc32)c1` [22E], the MIC (with C. albicans wild-type [1]; in the experiment on C. albicans wild-type [2]; in experiment [3]; in experiment [4]) was > 200 µg/mL throughout.
`O=C1OCc2ccccc2/C1=C\c1cccc(O)c1` [16E]: the MIC in the experiment with C. albicans wild-type [5] was 200 µg/mL (≈ 793 µM); in [6], 200 µg/mL (≈ 793 µM); in experiment [7] it was 100 µg/mL (≈ 396 µM); in the experiment on C. albicans wild-type [2], > 200 µg/mL; in experiment [3], > 200 µg/mL; in experiment [4], > 200 µg/mL. Further, the MIC is 200 µg/mL (≈ 793 µM) with C. albicans wild-type [8] and 50 µg/mL (≈ 198 µM) in the experiment on C. albicans wild-type [9].
Regarding `O=C1OCc2ccccc2/C1=C\c1cccc([N+](=O)[O-])c1` [24E], the MIC (with C. albicans wild-type [1]; in the experiment on C. albicans wild-type [2]; in experiment [3]; in [4]) was > 200 µg/mL throughout.
Regarding `O=C1OCc2ccccc2/C1=C\c1ccc(Cl)cc1` [23E], the MIC (with C. albicans wild-type [1]; in the experiment on C. albicans wild-type [2]; in experiment [3]; in experiment [4]) was > 200 µg/mL each time.
On to `COc1cc(/C=C2/C(=O)OCc3ccccc32)cc(OC)c1OC` [25E], for which the MIC (with C. albicans wild-type [1]; in the experiment with C. albicans wild-type [2]; in [3]; in experiment [4]) was > 200 µg/mL each time.
Take `O=C1OCc2ccccc2/C1=C\c1ccccc1Cl` [8E]: the MIC with C. albicans wild-type [5] was > 200 µg/mL; in experiment [6], 100 µg/mL (≈ 369 µM); in experiment [7] it was 50 µg/mL (≈ 185 µM); in the experiment with C. albicans wild-type [2] it was > 200 µg/mL; in experiment [3] it was > 200 µg/mL; in experiment [4], > 200 µg/mL. The MIC with C. albicans wild-type [8] is > 200 µg/mL; in the experiment with C. albicans wild-type [9], 200 µg/mL (≈ 739 µM).
Regarding `O=C1OCc2ccccc2/C1=C\c1cccnc1` [3E], the MIC with C. albicans wild-type [5] is 100 µg/mL (≈ 421 µM); in experiment [6] it was 50 µg/mL (≈ 211 µM); in [7] it was 25 µg/mL (≈ 105 µM); with C. albicans wild-type [2], > 200 µg/mL; in experiment [3], 200 µg/mL (≈ 843 µM); in experiment [4] it was 200 µg/mL (≈ 843 µM). In addition, the MIC in the experiment on C. albicans wild-type [8] was 100 µg/mL (≈ 421 µM); in the experiment with C. albicans wild-type [9], 50 µg/mL (≈ 211 µM).
On to `Cc1cc(C)c(/C=C2/C(=O)OCc3ccccc32)c(C)c1` [18E], for which the MIC (with C. albicans wild-type [1]; in the experiment with C. albicans wild-type [2]; in experiment [3]; in [4]) was > 200 µg/mL each time.
With `O=C1OCc2ccccc2/C1=C/c1ccccc1` [1Z], the MIC with C. albicans wild-type [5] is > 200 µg/mL; in experiment [6], 100 µg/mL (≈ 423 µM); in experiment [7], 50 µg/mL (≈ 212 µM); with C. albicans wild-type [2], > 200 µg/mL; in experiment [3], > 200 µg/mL; in experiment [4] it was > 200 µg/mL. Moreover, the MIC in the experiment on C. albicans wild-type [8] was > 200 µg/mL; in the experiment with C. albicans wild-type [9] it was 200 µg/mL (≈ 846 µM).
With `O=C1OCc2ccccc2/C1=C/c1ccc[nH]1` [5Z], the MIC in the experiment on C. albicans wild-type [5] is 100 µg/mL (≈ 444 µM); in experiment [6], 100 µg/mL (≈ 444 µM); in [7], 25 µg/mL (≈ 111 µM); with C. albicans wild-type [2], > 200 µg/mL; in [3], > 200 µg/mL; in experiment [4] it was > 200 µg/mL. Besides, the MIC in the experiment on C. albicans wild-type [8] amounted to 100 µg/mL (≈ 444 µM); in the experiment on C. albicans wild-type [9] it was 200 µg/mL (≈ 888 µM).
`O=C1OCc2ccccc2/C1=C/c1cccc(Cl)c1` [28Z, Z-4-[(3′-chlorophenyl)methylene]-3-isochromanone]: the MIC (with C. albicans wild-type [1]; in the experiment on C. albicans wild-type [2]; in [3]; in experiment [4]) was > 200 µg/mL each time.
Take `COc1ccc(/C=C2/C(=O)OCc3ccccc32)cc1OC` [26E, E-4-[(3′,4′-Dimethoxyphenyl)Methylene]-3-Isochromanone]: the MIC (in the experiment on C. albicans wild-type [1]; in the experiment on C. albicans wild-type [2]; in experiment [3]; in [4]) was > 200 µg/mL in each case.
For `COc1cc(/C=C2/C(=O)OCc3ccccc32)ccc1O` [30E, E-4-[(4′-Hydroxy-3′-Methoxyphenyl)Methylene]-3-Isochromanone], the MIC is > 200 µg/mL with C. albicans wild-type [1], > 200 µg/mL in the experiment with C. albicans wild-type [2], 150 µg/mL (≈ 531 µM) in [3] and 150 µg/mL (≈ 531 µM) in [4].
With `Cc1ccccc1/C=C1/C(=O)OCc2ccccc21` [20E], the MIC (in the experiment with C. albicans wild-type [1]; in the experiment with C. albicans wild-type [2]; in experiment [3]; in experiment [4]) was > 200 µg/mL each time.
As for `O=C1OCc2ccccc2/C1=C\c1ccc([N+](=O)[O-])cc1` [17E, E-4-[(4′-Nitrophenyl)Methylene]-3-Isochromanone], the MIC in the experiment with C. albicans wild-type [1] is > 200 µg/mL; in the experiment with C. albicans wild-type [2] it was > 200 µg/mL; in experiment [3], 200 µg/mL (≈ 711 µM); in experiment [4], > 200 µg/mL.
As for `O=C1OCc2ccccc2/C1=C\c1ccc(O)cc1` [29E, E-4-[(4′-Hydroxyphenyl)Methylene]-3-Isochromanone], the MIC (in the experiment on C. albicans wild-type [1]; in the experiment with C. albicans wild-type [2]; in experiment [3]; in experiment [4]) was > 200 µg/mL throughout.
